From US20250177473A1, “PEPTIDE REGULATORS OF METABOLISM” (Metabico, Inc., priority 2022, published 2025)
Residues, ends and D or L forms follow the SMILES beside them. No end group written: not given here.

Tests used:
[1] = tested on: primary mouse fibroblasts; assay: Cell confluence of fibroblasts (cytotoxic effect); format: cell-based; conditions: 2.5 mg/ml (highest dose), 24 hours
Description: The study was carried out in primary mouse fibroblasts. Isolation of fibroblasts was carried out with techniques described earlier (See Example 1). Fibroblasts were incubated with […] (SEQ ID NO: 1) peptide at different concentrations (0.005 mg/ml; 0.05 mg/ml; 0.5 mg/ml; 2.5 mg/ml) for 24 hours. Each treatment group was represented in two biological replicates.

[2] = target: T1, LPAR3 (Homo sapiens, UniProt Q9UBY5); assay: Full Functional GPCR Panel: LPAR3; format: cell-based; conditions: EPSI 100 μM; 30 nM Lysophosphatidic acid; CHO cells expressing LPAR3
T1 construct: host or cells: CHO
T1 sequence (Q9UBY5 1-353): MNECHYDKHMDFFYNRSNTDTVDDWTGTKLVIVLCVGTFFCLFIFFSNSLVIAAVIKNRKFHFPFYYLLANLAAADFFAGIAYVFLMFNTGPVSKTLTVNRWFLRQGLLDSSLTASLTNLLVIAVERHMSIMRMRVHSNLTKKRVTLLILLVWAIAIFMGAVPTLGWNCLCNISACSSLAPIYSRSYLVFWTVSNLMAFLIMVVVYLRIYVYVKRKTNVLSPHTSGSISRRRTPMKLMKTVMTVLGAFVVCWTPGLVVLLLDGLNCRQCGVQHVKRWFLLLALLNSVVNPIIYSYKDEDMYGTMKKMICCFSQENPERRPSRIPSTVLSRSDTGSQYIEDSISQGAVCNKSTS
Description: (§1) EPSI peptide was tested in the dose of 100 μM in 326 functional assays (163 GPCRs both in agonist and antagonist modes) combined in Full Functional GPCR Panel (item P343) provided by Eurofins Cerep SA.
(§2) Each cell-based assay was performed by application of the peptide to cell lines expressing individual receptors with subsequent measuring Ca2+, IP1, or cAMP depending on the receptor type. In the case of antagonist mode assays, the peptide was applied together with the control agonist.
(§3) Cellular agonist effect was calculated as a % of control response to a known reference agonist for each target and cellular antagonist effect was calculated as a % inhibition of control reference agonist response for each target.
EPSI peptide induced activating effect provided by 30 nM of control agonist Lysophosphatidic acid by 29.2±3.0% in CHO cells expressing LPAR3.

[3] = target: T2, GPR109A receptor (Homo sapiens, UniProt Q8TDS4); assay: Full Functional GPCR Panel: GPR109A antagonist mode; format: cell-based; conditions: EPSI 100 μM; 300 nM nicotinic acid; RBL cells expressing GPR109A
T2 construct: host or cells: RBL
Description: as §1, §2, §3

[4] = target: T3, FFAR2 (GPR43) receptor (Homo sapiens, UniProt O15552); assay: FFAR2 cell-based functional antagonist assay, intracellular Ca2+; conditions: EPSI 100 μM; 1 mM sodium acetate; HEK-293 cells expressing FFAR2
T3 construct: host or cells: HEK-293
T3 sequence (O15552 1-330): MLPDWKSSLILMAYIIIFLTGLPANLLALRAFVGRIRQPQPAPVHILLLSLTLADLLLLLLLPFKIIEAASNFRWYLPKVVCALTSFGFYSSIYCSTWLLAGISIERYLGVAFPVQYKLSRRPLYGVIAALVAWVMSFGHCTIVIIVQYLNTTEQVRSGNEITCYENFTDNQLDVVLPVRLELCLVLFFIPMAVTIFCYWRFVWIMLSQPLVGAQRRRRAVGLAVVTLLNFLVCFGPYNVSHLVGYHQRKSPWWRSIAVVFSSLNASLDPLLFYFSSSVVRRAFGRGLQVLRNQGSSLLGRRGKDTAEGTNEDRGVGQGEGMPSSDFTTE
Description: as §1, §2, §3
EPSI peptide acted as antagonist of FFAR2 (GPR43) receptor reducing by 28.0±1.5% the signal induced by 1 mM of sodium acetate in HEK-293 cells expressing FFAR2.
EPSI peptide was tested in the doses of 0.03, 0.16, 4, and 20 μM in FFAR2 cell-based functional antagonistic assay provided by Eurofins Cerep SA. The assay was performed in HEK-293 cell line expressing FFAR2 and stimulated with 1 mM sodium acetate (control reference agonist) for FFAR2 signaling induction. Fluorimetric measurement of intracellular Ca2+ levels was performed after the peptide application. Cellular antagonist effect was calculated as a % inhibition of control reference agonist response.

[5] = tested on: C57BL/6 mice on a high-fat diet; assay: Tolerability observations in HFD mice study; format: in vivo, mouse; conditions: EPSI 5 mg/kg i.n. and i.p.
Description: Groups of 10 animals were formed from the existing groups from Stage 2, with similar mean body weight (Table 6). The animals' bodyweight was monitored three times a week, water, and feed consumption—weekly. After the last treatment, the animals were euthanized for necropsy and their blood collected. The internal organs were examined for the presence of macro damage and weighed. The adipose tissue surrounding the epididymis was evaluated as a marker of obesity in animals. For histological examination, samples of adipose tissue and liver tissue were fixed in 10% formalin solution for further histological analysis.
During necropsy, the body's external state, internal surfaces, the cranial cavity, chest, abdominal and pelvic cavities with organs and tissues located in them, the neck with organs and tissues, the skeleton, and the musculoskeletal system were examined. The organs and tissues were fixed in 10% formalin. Liver and adipose tissue samples were weighed and stored in 10% formalin for subsequent histological analysis.

[6] = target: T4, M2 muscarinic receptor (Homo sapiens, UniProt P08172); assay: Full Functional GPCR Panel: M2 muscarinic receptor, cAMP; format: cell-based; conditions: EPSI 100 μM; vs 3 μM acetylcholine; CHO cells expressing M2
T4 construct: host or cells: CHO
T4 sequence (P08172 1-466): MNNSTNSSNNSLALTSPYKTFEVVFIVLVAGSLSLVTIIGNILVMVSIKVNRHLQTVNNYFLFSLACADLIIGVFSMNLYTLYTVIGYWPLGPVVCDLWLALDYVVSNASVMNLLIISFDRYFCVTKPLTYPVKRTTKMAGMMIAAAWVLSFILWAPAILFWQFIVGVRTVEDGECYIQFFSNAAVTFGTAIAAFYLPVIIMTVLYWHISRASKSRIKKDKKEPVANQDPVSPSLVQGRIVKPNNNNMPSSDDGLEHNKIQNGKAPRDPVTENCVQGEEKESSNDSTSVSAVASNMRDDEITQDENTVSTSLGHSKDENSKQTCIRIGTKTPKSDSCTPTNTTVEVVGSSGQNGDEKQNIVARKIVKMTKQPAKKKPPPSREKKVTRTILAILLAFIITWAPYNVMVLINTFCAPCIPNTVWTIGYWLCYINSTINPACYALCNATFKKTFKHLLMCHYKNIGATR
Description: as §1, §2, §3

[7] = target: T5, NPSR1 (the receptor of neuropeptide S) (Homo sapiens, UniProt Q6W5P4); assay: Full Functional GPCR Panel (Eurofins Cerep): NPSR1, intracellular Ca2+; format: cell-based; conditions: EPSI 100 μM; 10 nM NPS; HEK-293 cells expressing NPSR1
T5 construct: host or cells: HEK-293
T5 sequence (Q6W5P4 1-371): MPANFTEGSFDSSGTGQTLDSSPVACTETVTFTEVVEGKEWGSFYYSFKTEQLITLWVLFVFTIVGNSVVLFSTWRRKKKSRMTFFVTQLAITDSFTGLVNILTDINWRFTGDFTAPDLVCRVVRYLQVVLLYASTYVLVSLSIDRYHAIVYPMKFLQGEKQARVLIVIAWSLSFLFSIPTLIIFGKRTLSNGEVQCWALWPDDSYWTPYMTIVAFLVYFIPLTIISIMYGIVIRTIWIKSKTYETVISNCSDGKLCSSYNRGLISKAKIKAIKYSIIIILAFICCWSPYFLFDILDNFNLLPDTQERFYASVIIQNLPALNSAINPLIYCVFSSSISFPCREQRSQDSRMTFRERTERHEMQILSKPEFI
Description: as §1, §2, §3
EPSI peptide induced activating effect provided by 10 nM of control agonist NPS (neuropeptide S) by 56.4±8.5% in HEK-293 cells expressing NPSR1 (the receptor of neuropeptide S). Activation of NPSR1 was measured by the changes in intracellular Ca2+ levels.

[8] = tested on: HepG2 cells; assay: HepG2 cell death on incubation with antagonist; format: cell-based, human; conditions: co-incubation with EPSI 0.05 mg/mL in M67 reporter experiment
Description: • HepG2 human hepatocyte carcinoma cell line (HB-8065, ATCC, USA). • HepG2 cells were cultured in a complete DMEM medium containing 15% FBS.
Transfected HepG2 cells were co-incubated with EPSI peptide (0.05 mg/mL) and antagonists of the selected receptors.

[9] = tested on: TNF-α; assay: TNF-α mRNA expression in LPS-induced primary mouse fibroblasts; format: cell-based; conditions: peptide 100 μM + LPS 0.5 μg/mL, 24 hours
Description: (§4) The study was carried out in primary mouse fibroblasts. Isolation of fibroblasts was carried out with techniques described earlier (See Example 1). Fibroblasts were cultured for 3 days. The following stressors were applied separately: bacterial lipopolysaccharides (LPS), high glucose in the incubation medium, and serum-free incubation medium.
(§5) LPS is a major outer surface membrane component that induces an inflammatory response in cells.
(§6) Isolation of mRNA, synthesis of the first strand of cDNA, and RT-PCR were performed with techniques described earlier (See Example 1). Expression levels of IRS2, TNF-α, IL-6, and GSK3p (WNT-pathway) were analyzed.
(§7) The study was carried out in primary mouse fibroblasts. Isolation of fibroblasts was carried out with techniques described earlier (See Example 1). Incubation of fibroblasts with 100 μM individual peptides and 0.5 μg/mL LPS was carried out for 24 hours. Each treatment group was represented in two biological replicates.
(§8) Isolation of mRNA, synthesis of the first strand of cDNA, and RT-PCR were performed with techniques described earlier (See Example 1). Expression levels of RPL27, TNF-α, IL-6, and IRS2 genes were analyzed.

[10] = tested on: IL-6; assay: IL-6 mRNA expression in LPS-induced primary mouse fibroblasts; format: cell-based; conditions: peptide 100 μM + LPS 0.5 μg/mL, 24 hours
Description: as §4, §5, §6, §7, §8

[11] = tested on: IRS2 gene expression; assay: IRS2 and metabolic gene mRNA expression (real-time PCR) in primary mouse fibroblasts; format: cell-based; conditions: 24 hours
Description: The study was carried out in primary mouse fibroblasts. Fibroblasts were isolated from skin tissues of twenty C57BL/6 mice in accordance with the standard protocol (Seluanov (2010). Establishing primary adult fibroblast cultures from rodents. JoVE. 44). Fibroblasts were cultured in a complete DMEM/F12 medium containing 15% FBS for two days, after which they were incubated with individual peptides for 24 hours. The dose of each peptide was 0.5 mg/ml. The experiment was carried out in 2 biological replicates.
The isolation of total RNA from cells was performed using the “ExtractRNA” reagent (Evrogen, Russia) analog of Trizol, according to the manufacturer's protocol. The quality of the isolated total RNA was assessed by measuring the concentration of RNA and the ratio of optical absorption at wavelengths of 260 nm and 280 nm. […]
Real-time PCR was performed using commercially available kit qPCR mix-HS-SYBR+Low Rox (Evrogen, Russia) and 7500 real-time PCR System (Applied Biosystems). […] We analyzed expression levels of TSC1, TSC2, pS6K1, pAKT, IRS2, SREBP-1, Stat3 genes. […]
Isolation of mRNA, synthesis of the first strand of cDNA, and RT-PCR were performed with techniques described earlier (See Example 1). Expression levels of IRS2, TNF-α, IL-6, and GSK3p (WNT-pathway) were analyzed. […]

T2 sequence (Q8TDS4 whole entry): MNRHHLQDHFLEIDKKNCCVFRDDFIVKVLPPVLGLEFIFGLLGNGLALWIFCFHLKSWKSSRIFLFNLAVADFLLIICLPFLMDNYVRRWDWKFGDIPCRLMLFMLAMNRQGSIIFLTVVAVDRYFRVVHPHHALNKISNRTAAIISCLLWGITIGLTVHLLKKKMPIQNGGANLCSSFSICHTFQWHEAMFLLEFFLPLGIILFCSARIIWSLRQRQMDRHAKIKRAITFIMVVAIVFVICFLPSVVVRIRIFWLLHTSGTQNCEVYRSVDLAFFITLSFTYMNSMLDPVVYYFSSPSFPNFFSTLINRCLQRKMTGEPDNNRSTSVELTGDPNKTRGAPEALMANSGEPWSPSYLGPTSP

**Q.** With DLSKEPSISRE as the compound, how does the “cytotoxic effect (confluence of the cells)” value [1] read?
**A.** absence of cytotoxic effect

**Q.** Which “induction of activating effect of control agonist Lysophosphatidic acid” value [2] does the source give for `CC[C@H](C)[C@H](NC(=O)[C@H](CO)NC(=O)[C@@H]1CCCN1C(=O)[C@@H](N)CCC(=O)O)C(=O)O` [EPSI] (H-EPSI-OH) here?
**A.** 29.2±3.0%

**Q.** And the “reduction of signal evoked by nicotinic acid (antagonist mode)” value [3]?
**A.** 37.1±2.1%

**Q.** And the “reduction of signal induced by sodium acetate (antagonist mode)” value [4]?
**A.** 28.0±1.5%

**Q.** And the “local irritating effect (nasal mucosa; abdominal wall skin and subcutaneous tissue)” value [5]?
**A.** no local irritating effect

**Q.** What about the “toxic effects throughout the experiment” value ([5]; up to 28 days) of the same compound?
**A.** no toxic effects

**Q.** What about the “reduction of cAMP levels, efficiency compared to control agonist” value [6] of the same compound?
**A.** 26.8±6.8%

**Q.** And the “induction of activating effect of control agonist NPS (intracellular Ca2+)” value [7]?
**A.** 56.4±8.5%

**Q.** With `COc1cc(OC)cc(N(CCNC(C)C)c2ccc3ncc(-c4cnn(C)c4)nc3c2)c1` [Erdafitinib] as the compound, how does the HepG2 cell death [8] read?
**A.** total cell death

**Q.** SKEPSIS (Synthetic polymer) was tested. Which “LPS-evoked levels of TNF-α expression” value [9] did it give?
**A.** reducing LPS-evoked levels

**Q.** And the “LPS-evoked levels of IL-6 expression” value [10]?
**A.** reducing LPS-evoked levels

**Q.** And the “IRS2 expression during LPS-induced inflammatory response” value ([11]; peptide 100 μM + LPS 0.5 μg/mL)?
**A.** induced

**Q.** What about the “IRS2 gene expression levels” value ([11]; pharmacophore screen, peptides 100 μM) of the same compound?
**A.** induce IRS2 gene expression levels
